Data set [1] addresses T1, Aurora kinase A (Homo sapiens, UniProt O14965).
T1 sequence (O14965 whole entry): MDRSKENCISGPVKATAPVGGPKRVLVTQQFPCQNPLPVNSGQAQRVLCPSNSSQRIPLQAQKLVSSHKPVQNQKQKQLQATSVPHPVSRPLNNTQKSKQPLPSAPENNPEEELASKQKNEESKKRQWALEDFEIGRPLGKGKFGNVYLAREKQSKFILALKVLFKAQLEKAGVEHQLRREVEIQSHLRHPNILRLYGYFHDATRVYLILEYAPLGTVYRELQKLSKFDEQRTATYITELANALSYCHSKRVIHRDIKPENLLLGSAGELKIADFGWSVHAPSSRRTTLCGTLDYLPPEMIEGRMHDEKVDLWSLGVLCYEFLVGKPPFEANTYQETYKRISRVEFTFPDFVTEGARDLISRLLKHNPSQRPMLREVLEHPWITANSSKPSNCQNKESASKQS
Description: Inhibition of Aurora A by radiometric assay

In data set [2] the test system is HCT-116. Briefly: Cell cycle arrest in human HCT116 cells assessed as accumulation of 4N DNA phase after 16 hrs by FACS. The settings on record: HCT-116, 16 h. In general terms: A flow cytometer gives signals particle by particle.
In data set [3] the test system is HCT-116. The experiment in a line: Antiproliferative activity against human HCT116 cells assessed as BrdU incorporation. The format is functional, cell-based. On the technique in general: Dividing cells build labelled thymidine or BrdU into new DNA.
Data set [4] deals with Aurora kinase B (Homo sapiens, UniProt Q96GD4). Briefly: Inhibition of Aurora B by radiometric assay.
Data set [5] deals with HCT-116. The experiment in a line: Decrease in histone H3 phosphorylation in human HCT116 cells after 16 hrs by Western blot. As to conditions: HCT-116, 16 h.
The subject of data set [6] is Mus musculus. The experiment in a line: Decrease in histone H3 phosphorylation in human HCT116 cells xenografted mouse at 100 mg/kg, ip after 10 hrs. The format is functional. As to conditions: HCT-116, ip, route intraperitoneal.
In data set [7] the test system is Mus musculus. Briefly: Decrease in histone H3 phosphorylation in human HCT116 cells xenografted mouse at 50 mg/kg, ip after 10 hrs. In kind it is functional. The settings on record: HCT-116, ip, route intraperitoneal.
Data set [8] relates to Mus musculus. Briefly: Decrease in histone H3 phosphorylation in human HCT116 cells xenografted mouse at 100 mg/kg, ip after 6 hrs. In kind it is functional. As to conditions: HCT-116, ip, route intraperitoneal. In general terms: Xenograft models place foreign cells or tissue in a host animal.
In data set [9] the test system is Mus musculus. Briefly: Decrease in histone H3 phosphorylation in human HCT116 cells xenografted mouse at 50 mg/kg, ip after 6 hrs. The format is functional. The settings on record: HCT-116, ip, route intraperitoneal.
The nature of data set [10]: Drug level in HCT116 xenografted mouse tumor at 100 mg/kg, ip after 10 hrs. The format is ADME, organism-based, Neoplasm. The arrangement: dose 100 mg/kg, route intraperitoneal. As to conditions: human, tumor (HCT116 xenograft), read-out: Drug uptake.
A short description of data set [11]: Drug level in HCT116 xenografted mouse tumor at 100 mg/kg, ip after 6 hrs. The settings on record: human, tumor (HCT116 xenograft), read-out: Drug uptake. On the set-up: dose 100 mg/kg, route intraperitoneal. In kind it is ADME, organism-based, Neoplasm.
Data set [12] is described as follows: Drug level in HCT116 xenografted mouse tumor at 50 mg/kg, ip after 10 hrs. The format is ADME, organism-based, Neoplasm. On the set-up: dose 50 mg/kg, route intraperitoneal. The settings on record: human, tumor (HCT116 xenograft), read-out: Drug uptake.
Data set [13] can be described thus: Drug level in HCT116 xenografted mouse tumor at 50 mg/kg, ip after 6 hrs. In kind it is ADME, organism-based, Neoplasm. On the set-up: dose 50 mg/kg, route intraperitoneal. The settings on record: human, tumor (HCT116 xenograft), read-out: Drug uptake.
Data set [14] deals with HCT-116. Briefly: Antitumor activity against human HCT116 cells xenografted in mouse at 100 mg/kg, ip administered twice weekly for 3 weeks. In kind it is functional. As to conditions: HCT-116, ip, 504 h, route intraperitoneal, read-out: TGI.

Aurora kinase B, sequence (Q96GD4 whole entry): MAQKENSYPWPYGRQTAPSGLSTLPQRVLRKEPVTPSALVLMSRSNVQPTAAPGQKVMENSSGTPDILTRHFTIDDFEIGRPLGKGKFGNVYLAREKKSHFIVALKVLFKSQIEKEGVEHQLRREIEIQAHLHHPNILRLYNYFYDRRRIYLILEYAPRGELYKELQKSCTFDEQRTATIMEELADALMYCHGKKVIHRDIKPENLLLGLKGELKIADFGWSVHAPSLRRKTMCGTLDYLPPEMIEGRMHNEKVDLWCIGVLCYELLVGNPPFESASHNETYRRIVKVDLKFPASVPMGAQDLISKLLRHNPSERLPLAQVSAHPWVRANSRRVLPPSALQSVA

`O=C(Nc1ccc(CCNc2ncnc3ccsc23)cc1)c1cccc(C(F)(F)F)c1`: in data set [1], the IC50 stood at 3200 nM.

The compound `O=C(Nc1cccc(C(F)(F)F)c1)c1ccc(CCNc2ncnc3ccsc23)cc1` returned an IC50 in data set [1] above 20000 nM.

For the compound `O=C(Nc1ccc(CCNc2ncnc3ccsc23)cc1)Nc1cccc(C(F)(F)F)c1`, in [1], the IC50 came to 1200 nM.

In the case of `O=C(Nc1cccc(CCNc2ncnc3ccsc23)c1)Nc1cccc(C(F)(F)F)c1`, in data set [1], the IC50 was above 20000 nM.

Regarding `O=C(Nc1cccc(C(F)(F)F)c1)Nc1cn(CCNc2ncnc3ccsc23)cn1`, the midpoint of inhibition in data set [1], the IC50, lay at 1200 nM.

Take `COc1cccc(NC(=O)Nc2ncc(CCNc3ncnc4ccsc34)s2)c1`: the concentration for a half-maximal effect (EC50) in data set [2] came out at 16 nM; in [3], 34 nM. Moreover, the IC50 in data set [1] turned out to be 50 nM.

For the compound `O=C(Cc1cccc(C(F)(F)F)c1)Nc1ncc(CCNc2ncnc3ccsc23)s1`, the figures for the IC50 in data set [3], in data set [1] and in [4] were above 10000 nM, above 10000 nM and 580 nM, respectively.

With `C#Cc1cccc(NC(=O)Nc2ncc(CCNc3ncnc4ccsc34)s2)c1`, the EC50 was below 16 nM in [2] and 14 nM in [3]. The compound also returned an IC50 in data set [1] of 41 nM.

In the case of `O=C(Cc1ncc(CCNc2ncnc3ccsc23)s1)Nc1cccc(C(F)(F)F)c1`, the figures for the 50% inhibitory concentration (IC50) in data set [1] and in [4] were 4900 nM and 442 nM, respectively.

On to `O=C(Nc1cccc(C(F)(F)F)c1)Nc1ncc(CCNc2ncnc3ccsc23)s1`, for which the EC50 in [5] and in data set [2] was below 16 nM throughout. Further, the inhibition in vivo at 100 mg/kg in data set [6] and in [8] was 75% throughout. Also, the inhibition in vivo at 50 mg/kg in data set [7] came out at 50%; in data set [9] it was 75%. Half-maximal inhibition in data set [4] (IC50) was put at 14 nM.

Take `O=C(Nc1ncc(CCNc2ncnc3ccsc23)s1)c1cccc(C(F)(F)F)c1`: the EC50 in data set [2] is 1000 nM. Also, in [1], the 50% inhibitory concentration (IC50) was determined as 2500 nM.

As for `O=C(Nc1ccccc1)Nc1ncc(CCNc2ncnc3ccsc23)s1`, the IC50 came out at 52 nM in data set [1] and 120 nM in data set [4].

In the case of `CN(C(=O)Nc1ncc(CCNc2ncnc3ccsc23)s1)c1ccccc1`, the values for the IC50 in data set [3] and in [1] were above 10000 nM and 7200 nM, respectively.

Turning to `O=C(Nc1ccc(Cl)cc1)Nc1ncc(CCNc2ncnc3ccsc23)s1`, the results for the EC50 in data set [2] and in data set [3] were 16 nM and 30 nM, respectively. Moreover, the IC50 in data set [1] is 39 nM.

For the compound `O=C(Nc1ncc(CCNc2ncnc3ccsc23)s1)Nc1ccccc1Cl`, the values for the EC50 in [2] and in data set [3] were above 250 nM and 376 nM, respectively. The same compound registered an IC50 in data set [1] of 280 nM.

Regarding `O=C(Nc1cc(CN2CCCC2)cc(C(F)(F)F)c1)Nc1ncc(CCNc2ncnc3ccsc23)s1`, the EC50 in [5] was 16 nM; in data set [2] it was below 16 nM; in data set [3] it was 6 nM. Moreover, the concentration at 10 h in data set [10] is 8.76 µM. Further, in data set [11], the concentration at 6 h is 6.2 µM. The inhibition in vivo at 100 mg/kg came out at 25% in [6] and 50% in data set [8]. In addition, the inhibition in vivo at 50 mg/kg was found to be 0% in data set [7] and 25% in [9]. Further, the IC50 in [1] was determined as 4 nM; in data set [4], 22 nM.

As for `O=C(Nc1ncc(CCNc2ncnc3ccsc23)s1)Nc1cccc2cc[nH]c12`, the EC50 in data set [5] is 16 nM; in data set [2], 16 nM; in [3], 31 nM. In addition, the concentration at 10 h came to 4.36 µM in [10] and 3.67 µM in data set [12]. The concentration at 6 h came out at 16.9 µM in data set [11] and 4.82 µM in [13]. The inhibition in vivo at 100 mg/kg in data set [6] and in data set [8] was 75% each time. Moreover, the inhibition in vivo at 50 mg/kg in [7] and in data set [9] was 75% throughout. Besides, the figures for the IC50 in [1] and in [4] were 30 nM and 19 nM, respectively.

On to `O=C(Nc1ncc(CCNc2ncnc3ccsc23)s1)NC1CCCCC1`, for which the values for the EC50 in [2] and in data set [3] were 63 nM and 72 nM, respectively. In addition, the results for the IC50 in data set [1] and in data set [4] were 270 nM and 61 nM, respectively.

Turning to `O=C(Nc1ccc(Cl)c(Cl)c1)Nc1ncc(CCNc2ncnc3ccsc23)s1`, the EC50 in data set [5] came to 16 nM; in data set [2] it was 16 nM; in data set [3] it was 24 nM. Moreover, the values for the concentration at 10 h in data set [10] and in data set [12] were 54.8 µM and 12.5 µM, respectively. For the same compound, the concentration at 6 h in data set [11] worked out at 49.5 µM; in data set [13], 21.3 µM. The inhibition in vivo at 100 mg/kg in data set [6] and in data set [8] was 25% in each case. In addition, the inhibition in vivo at 50 mg/kg in data set [7] and in data set [9] was 0% each time. The IC50 in [1] stood at 96 nM; in [4], 13 nM.

For the compound `O=C(Nc1cccc(F)c1)Nc1ncc(CCNc2ncnc3ccsc23)s1`, the concentration for a half-maximal effect (EC50) was below 16 nM in [5], below 16 nM in [2] and 6 nM in data set [3]. Moreover, the concentration at 10 h in data set [10] is 19.8 µM; in [12], below 1 µM. Further, the concentration at 6 h in data set [11] was 101 µM; in [13] it was 1.2 µM. Also, the inhibition in vivo at 100 mg/kg in [6] came out at 25%; in data set [8], 75%. Besides, the values for the inhibition in vivo at 50 mg/kg in data set [7] and in data set [9] were 0% and 25%, respectively. Also, the IC50 in data set [1] turned out to be 23 nM; in data set [4], 18 nM.

The compound `O=C(Nc1cccc(C(F)(F)F)c1)Nc1nc(CCNc2ncnc3ccsc23)cs1` displayed an IC50 in data set [1] above 20000 nM.

For `Cc1cccc(NC(=O)Nc2ncc(CCNc3ncnc4ccsc34)s2)c1`, the EC50 in data set [2] was below 16 nM; in data set [3], 19 nM. In addition, the IC50 in [1] worked out at 9 nM; in data set [4] it was 54 nM.

In data set [1], `O=C(Nc1cccc(C(F)(F)F)c1)Nc1cn(CCNc2ncnc3ccsc23)nn1` gave an IC50 of 250 nM.

With `O=C(Nc1cccc(CCN2CCC2)c1)Nc1ncc(CCNc2ncnc3ccsc23)s1`, the EC50 was 63 nM in [5], 16 nM in data set [2] and 121 nM in [3]. The inhibition in vivo at 50 mg/kg in data set [7] and in data set [9] was 0% in each case. Moreover, the IC50 amounted to 53 nM in [1] and 120 nM in data set [4]. Moreover, the concentration at 10 h in data set [12] is below 1 µM. For the same compound, in data set [13], the concentration at 6 h is below 1 µM.

As to `O=C(Nc1ccc(F)c(Cl)c1)Nc1ncc(CCNc2ncnc3ccsc23)s1`, the 50% effective concentration (EC50) was below 16 nM in [5], below 16 nM in data set [2] and 5 nM in data set [3]. The concentration at 10 h in [10] came out at 56.1 µM; in data set [12] it was 15.6 µM. In addition, the figures for the concentration at 6 h in data set [11] and in [13] were 112 µM and 25.8 µM, respectively. Further, the values for the inhibition in vivo at 100 mg/kg in data set [6] and in [8] were 50% and 75%, respectively. The inhibition in vivo at 50 mg/kg in [7] is 25%; in [9] it was 75%. Besides, the concentration for half-maximal inhibition (IC50) is 11 nM in data set [1] and 51 nM in [4].

On to `CS(=O)(=O)O.O=C(Nc1cccc(Cl)c1)Nc1ncc(CCNc2ncnc3ccsc23)s1` [SNS-314 MESYLATE], for which the concentration for a half-maximal effect (EC50) in [5] and in data set [2] was below 16 nM in each case. The figures for the concentration at 10 h in [10] and in data set [12] were 31.6 µM and 3.72 µM, respectively. Moreover, the concentration at 6 h amounted to 28.6 µM in data set [11] and 9.07 µM in data set [13]. The inhibition in vivo at 100 mg/kg in [6] worked out at 75%; in [8], 75%; in data set [14] it was 96%. For the same compound, the inhibition in vivo at 50 mg/kg stood at 50% in data set [7] and 75% in data set [9].

As usually defined, the IC50 is the point on the concentration scale where inhibition reaches its midpoint. What is called EC50 is the concentration giving half of the maximal effect.

Values taken from ChEMBL document CHEMBL1156726, “Discovery of a potent and selective aurora kinase inhibitor” (Bioorg Med Chem Lett, 2008).
